Data reported in paper PMC4965013, “Open Source Drug Discovery with the Malaria Box Compound Collection for Neglected Diseases and Beyond” (PLoS Pathogens, 2016).
Where two headings read alike, the source gives them in different places.

Assays:
[1] = test system: P. falciparum Dd2; test: Malaria Sybr Green I Fluorescence assay Dd2 Horrocks; format: cell-based; settings: Plasmodium falciparum, DD2, 48 h; read-out: P. falciparum Dd2 asexual blood stage EC50 Horrocks
Description: Column S: Horrocks group (data presented first in this paper). Asexual Dd2 inhibition of growth (IC50s): IC50 for the Dd2 clone of Plasmodium falciparum were determined using the Malaria Sybr Green I Fluorescence assay. Drug assays were initiated using a 2% trophozoite stage parasitaemia and 2% hematocrit and fluorescence measured after 48 h as fully described in Hasenkamp et al.[53]. Log dose-response curves were plotted in GraphPad Prism (v5.0). The controls for Dd2 using our 48hr Sybr Green I assay were (rounded to nearest nM): Chloroquine 209nM, Mefloquine 11nM, Quinine 246nM, Dihydroartemisinin 4nM, Artemether 10nM, Atovaquone 3nM.

[2] = test system: P. falciparum 3D7 trophozoites; test: Metabolomic fingerprint profiling LC-MS; format: cell-based, Plasmodium falciparum; design: UDP-D-glucose / ADP-D-glucose: unit not given here; settings: for Acetyllysine / N-acetyl-L-ornithine / N-carbamoyl-L-aspartate / NADPH / dAMP / dCMP / dTDP / dTMP / dTTP / dihydroorotate / orotate / DLH / DLS/SDL/SID / PD / PEE / PVNF / 3-phosphoglycerate / ADP-D-glucose / ATP / CDP / D-sedoheptulose-1/7-phosphate / FAD / GMP / NAD+ / NADP+ / Octoluse Bisphosphate / Pyroglutamic acid / UDP-D-glucose / UDP-D-glucuronate / UDP-N-acetyl-glucosamine / UDP / UMP / UTP / a-ketoglutarate / citrate/isocitrate / cytidine / dATP / dGMP/AMP / fumarate / glucose-1/6-phosphate / glycerate / guanine / guanosine / hypoxanthine / indole / inosine / nicotinate / ornithine / phosphoenolpyruvate / pyruvate / ribose-phosphate / sarcosine/alanine / sn-glycerol-3-phosphate / succinate/methylmalonic acid / uridine / xanthosine: S2 Table Metabolomics; for Acetyllysine: metabolite Acetyllysine; for N-acetyl-L-ornithine: metabolite N-acetyl-L-ornithine; for N-carbamoyl-L-aspartate: metabolite N-carbamoyl-L-aspartate; for NADPH: metabolite NADPH; for dAMP: metabolite dAMP; for dCMP: metabolite dCMP; for dTDP: metabolite dTDP; for dTMP: metabolite dTMP; for dTTP: metabolite dTTP; for dihydroorotate: metabolite dihydroorotate; for orotate: metabolite orotate; for DLH: peptide DLH; for DLS/SDL/SID: peptide DLS/SDL/SID; for PD: peptide PD; for PEE: peptide PEE; for PVNF: peptide PVNF; for 3-phosphoglycerate: metabolite 3-phosphoglycerate; for ADP-D-glucose: metabolite ADP-D-glucose; for ATP: metabolite ATP; for CDP: metabolite CDP; for CDP / D-sedoheptulose-1/7-phosphate / GMP / Octoluse Bisphosphate / UDP / UMP / UTP / citrate/isocitrate / dGMP/AMP / fumarate / glucose-1/6-phosphate / glycerate / guanine / guanosine / inosine / pyruvate / sarcosine/alanine / succinate/methylmalonic acid / uridine / xanthosine: change in metabolite level after compound treatment; for D-sedoheptulose-1/7-phosphate: metabolite D-sedoheptulose-1/7-phosphate; for FAD: metabolite FAD; for GMP: metabolite GMP; for NAD+: metabolite NAD+; for NADP+: metabolite NADP+; for Octoluse Bisphosphate: metabolite Octoluse Bisphosphate; for Pyroglutamic acid: metabolite Pyroglutamic acid; for UDP-D-glucose: metabolite UDP-D-glucose; for UDP-D-glucuronate: metabolite UDP-D-glucuronate; for UDP-N-acetyl-glucosamine: metabolite UDP-N-acetyl-glucosamine; for UDP: metabolite UDP; for UMP: metabolite UMP; for UTP: metabolite UTP; for a-ketoglutarate: metabolite a-ketoglutarate; for citrate/isocitrate: metabolite citrate/isocitrate; for cytidine: metabolite cytidine; for dATP: metabolite dATP; for dGMP/AMP: metabolite dGMP/AMP; for fumarate: metabolite fumarate; for glucose-1/6-phosphate: metabolite glucose-1/6-phosphate; for glycerate: metabolite glycerate; for guanine: metabolite guanine; for guanosine: metabolite guanosine; for hypoxanthine: metabolite hypoxanthine; for indole: metabolite indole; for inosine: metabolite inosine; for 2_3-Diphosphoglyceric acid / 4-phosphopantothenate / 6-phospho-D-gluconate / FMN / IMP / Pyrophosphate / Sedoheptoluse bisphosphate / cyclic-AMP / glutathione disulfide / lactate / myo-inositol: metabolite level change after treatment; for nicotinate: metabolite nicotinate; for ornithine: metabolite ornithine; for phosphoenolpyruvate: metabolite phosphoenolpyruvate; for pyruvate: metabolite pyruvate; for ribose-phosphate: metabolite ribose-phosphate; for sarcosine/alanine: metabolite sarcosine/alanine; for sn-glycerol-3-phosphate: metabolite sn-glycerol-3-phosphate; for succinate/methylmalonic acid: metabolite succinate/methylmalonic acid; for uridine: metabolite uridine; for xanthosine: metabolite xanthosine
[3] = test system: P. falciparum; test: EC50 listed in S2 Table Metabolomics (used to set the concentration tested); format: cell-based; settings: Plasmodium falciparum; EC50 used for Factor_XEC50 in metabolomics; read-out: EC50_nM
[4] = test system: Naegleria fowleri trophozoites; test: Naegleria fowleri CellTiter-Glo; format: cell-based; settings: for EC50: Naegleria fowleri
From the text: Columns CY-CZ: Kyle group (data presented first in this paper). Naegleria fowleri trophozoite growth inhibition. Methods: The CellTiter-Glo (CTG) 2.0 luminescent assay is a quantitative assay that assesses the presence of cellular ATP in lysed cells, displaying an output in Relative Light Units (RLU’s). This was previously standardised, for the growth and development of Naegleria fowleri trophozoites in-vitro to assess drug susceptibility on this parasite. […] These included two drug-like molecules MMV665807 (St. Jude’s Children’s Hospital) and MMV665979 (The Genomics Institute of the Novartis Research Foundation - GNF) and two Probe-like molecules, MMV006203 (GNF) & MMV006172 (GNF; GlaxoSmithKline - GSK). […] However, these Malaria Box compounds were all toxic to zebrafish and mammalian cells.

[5] = test system: P. falciparum 3D7; test: [3H]-hypoxanthine growth inhibition, modified HCO3- or O2; format: cell-based; settings: for IC50: Plasmodium falciparum
[6] = test system: P. falciparum NF54 late-stage gametocytes; settings: ref [61]; cited from earlier work

## O=C1C(O)=C([C@H]2CC[C@H](c3ccc(Cl)cc3)CC2)C(=O)c2ccccc21 [Atovaquone, reference compound]
[1]
  EC50: 3 nM
[2]
  Acetyllysine: -0.04735
  N-acetyl-L-ornithine: -0.04174
  N-carbamoyl-L-aspartate: 3.574
  NADPH: 0.3866
  dAMP: -0.09487
  dCMP: 0.3344
  dTDP: -0.7104
  dTMP: -0.4179
  dTTP: -0.8198
  dihydroorotate: 4.214
  orotate: -0.07211
  DLH: -0.06109
  DLS/SDL/SID: -0.04893
  PD: 0.1235
  PEE: -0.1722
  PVNF: -0.41
  3-phosphoglycerate: 0.03739
  ADP-D-glucose: 0.08423
  ATP: 0.06271
  CDP: -0.5138
  D-sedoheptulose-1/7-phosphate: 0.1418
  FAD: 0.1027
  GMP: 0.1184
  NAD+: 0.1854
  NADP+: 0.1184
  Octoluse Bisphosphate: -0.059
  Pyroglutamic acid: 0.08924
  UDP-D-glucose: 0.001015
  UDP-D-glucuronate: -0.0616
  UDP-N-acetyl-glucosamine: -0.1593
  UDP: -0.7439
  UMP: -0.8555
  UTP: -1.1527
  a-ketoglutarate: -0.0182
  citrate/isocitrate: -0.0966
  cytidine: 0.2964
  dATP: 0.2506
  dGMP/AMP: -0.116
  fumarate: 0.379
  glucose-1/6-phosphate: 0.3695
  glycerate: 0.1345
  guanine: 0.3762
  guanosine: 0.6121
  hypoxanthine: 0.2162
  indole: 0.1728
  inosine: 0.1672
  2_3-Diphosphoglyceric acid: -0.09802
  4-phosphopantothenate: -0.2334
  6-phospho-D-gluconate: 0.01237
  FMN: -0.003621
  IMP: 0.3101
  Pyrophosphate: -0.1571
  Sedoheptoluse bisphosphate: 0.01404
  cyclic-AMP: -0.03093
  glutathione disulfide: 0.00323
  lactate: 0.02673
  myo-inositol: 0.3272
  nicotinate: 0.1461
  ornithine: 0.1076
  phosphoenolpyruvate: 0.02037
  pyruvate: -0.07747
  ribose-phosphate: 0.1578
  sarcosine/alanine: -0.1241
  sn-glycerol-3-phosphate: 0.1524
  succinate/methylmalonic acid: -0.1814
  uridine: -0.1824
  xanthosine: 0.05904
[3]
  EC50: 1 nM

## FC(F)(F)c1cccc(CNC2CCN(CCc3ccccc3)CC2)c1 [MMV665979]
[4]
  Naegleria fowleri hit in words: outstanding hit
  EC50: 190 nM

## Cc1cc(NCCN2CCCCC2)c2ccc3ccccc3c2n1 [MMV006203]
[4]
  EC50: 420 nM
[2]
  Acetyllysine: 0.08786
  N-acetyl-L-ornithine: 0.002896
  N-carbamoyl-L-aspartate: 0.4112
  NADPH: 0.03038
  dAMP: 0.7397
  dCMP: 0.2991
  dTDP: 0.8216
  dTMP: 0.8444
  dTTP: 0.2113
  dihydroorotate: 0.4914
  orotate: 0.1057
  DLH: -0.3111
  DLS/SDL/SID: -0.5497
  PD: -0.2642
  PEE: -0.1431
  PVNF: -0.3001
  3-phosphoglycerate: -0.2573
  ADP-D-glucose: 0.2156
  ATP: -0.6838
  CDP: 0.8402
  D-sedoheptulose-1/7-phosphate: 0.9147
  FAD: 0.06173
  GMP: -0.5622
  NAD+: -0.01124
  NADP+: 0.01586
  Octoluse Bisphosphate: -0.09172
  Pyroglutamic acid: -0.7767
  UDP-D-glucose: 0.04255
  UDP-D-glucuronate: -0.09689
  UDP-N-acetyl-glucosamine: 0.1138
  UDP: 0.8936
  UMP: -0.4956
  UTP: -0.4083
  a-ketoglutarate: -0.4253
  citrate/isocitrate: -0.3127
  cytidine: -0.1848
  dATP: -0.6172
  dGMP/AMP: 0.6443
  fumarate: -0.3628
  glucose-1/6-phosphate: 0.2347
  glycerate: -0.4315
  guanine: 0.07764
  guanosine: -0.09005
  hypoxanthine: -0.3483
  indole: -0.1837
  inosine: -0.08456
  2_3-Diphosphoglyceric acid: 0.4386
  4-phosphopantothenate: 0.2283
  6-phospho-D-gluconate: 0.1112
  FMN: 0.1526
  IMP: 0.332
  Pyrophosphate: 0.424
  Sedoheptoluse bisphosphate: -0.2408
  cyclic-AMP: -0.2974
  glutathione disulfide: 0.042
  lactate: -0.2642
  myo-inositol: -0.268
  nicotinate: -0.1416
  ornithine: -0.3267
  phosphoenolpyruvate: -0.2017
  pyruvate: -0.1834
  ribose-phosphate: -0.417
  sarcosine/alanine: 0.1849
  sn-glycerol-3-phosphate: -0.1322
  succinate/methylmalonic acid: -0.1409
  uridine: -0.04629
  xanthosine: -0.705
[3]
  EC50: 300 nM
[5]
  fold change (IC50normal/ IC50hypoxia): 3.7
[5]; 3D7, read-out: P. falciparum 3D7 IC50 1% O2, 1% O2 hypoxia
  IC50: 132 nM
[5]; 3D7, read-out: P. falciparum 3D7 IC50 5% O2
  IC50: 489 nM

## CCN(CC)CCn1c(=N)n(CC(O)c2ccc(Cl)c(Cl)c2)c2ccccc21 (stereo not drawn) [MMV000248]
[6]
  IC50: < 350 nM
